Where two headings read alike, the source gives them in different places.
Experiments:
[1] = cited from earlier work
[2] = stability of salts of Compound 1 during processing and formulation; details: for stability of strong acid salts: readily undergo apparent esterification with alcoholic solvents; for stability towards excipients and/or components of a formulation: salts react with excipients and/or components of a formulation
endothelial recruitment = experiment: inhibition of endothelial recruitment in vitro; type: cell-based
ApoE [3] = experiment: ApoE gene expression induction in cancer cells; type: cell-based
ApoE [4] = experiment: ApoE gene expression induction in hPBMCs; type: cell-based, human
[5] = test system: melanoma, glioblastoma, TNBC, ovarian cancer, and lung cancer; experiment: syngeneic and human xenograft mouse tumor models, primary tumor growth; type: in vivo
[6] = target: human ether-à-go-go-related gene (hERG) channel (Homo sapiens, UniProt Q12809); experiment: in vitro hERG assay; type: cell-based
[7] = ECG and heart rate in dogs (safety pharmacology); type: in vivo
[8] = neurobehavioral FOB and respiratory evaluations in rats; type: in vivo
oral PK in CD-1 mice = type: in vivo
[9] = oral PK in Sprague-Dawley rats; type: in vivo
[10] = oral PK in male Beagle dogs; type: in vivo
[11] = oral PK in Cynomolgus monkeys; type: in vivo
CYP3A4 = CYP3A4 (Homo sapiens, UniProt P08684); experiment: in vitro metabolism by CYP isoforms; type: in vitro ADME
[12] = test system: CYP2E1, CYP2C9, CYP2C19, and possibly CYP2J2; experiment: in vitro metabolism by CYP isoforms (other substrates); type: in vitro ADME
1A1 = target: T1, 1A1 (Homo sapiens, UniProt P04798); experiment: CYP inhibition in vitro; type: in vitro ADME
T1 sequence (P04798 1-512): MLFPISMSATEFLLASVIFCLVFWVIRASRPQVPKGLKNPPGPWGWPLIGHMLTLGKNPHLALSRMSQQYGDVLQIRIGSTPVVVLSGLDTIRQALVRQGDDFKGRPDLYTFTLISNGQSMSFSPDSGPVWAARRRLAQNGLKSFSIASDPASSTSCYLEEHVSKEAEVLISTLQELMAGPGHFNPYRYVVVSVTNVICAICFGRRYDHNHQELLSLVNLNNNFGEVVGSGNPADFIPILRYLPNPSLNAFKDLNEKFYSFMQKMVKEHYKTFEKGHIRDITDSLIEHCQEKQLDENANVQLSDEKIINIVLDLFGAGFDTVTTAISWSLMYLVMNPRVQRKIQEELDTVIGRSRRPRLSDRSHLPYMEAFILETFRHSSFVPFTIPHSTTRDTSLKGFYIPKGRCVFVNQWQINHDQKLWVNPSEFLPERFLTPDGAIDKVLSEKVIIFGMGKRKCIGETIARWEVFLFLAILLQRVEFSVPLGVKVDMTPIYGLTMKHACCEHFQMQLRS

2A6 = target: T2, 2A6 (Homo sapiens, UniProt P11509); experiment: CYP inhibition in vitro; type: in vitro ADME
T2 sequence (P11509 1-494): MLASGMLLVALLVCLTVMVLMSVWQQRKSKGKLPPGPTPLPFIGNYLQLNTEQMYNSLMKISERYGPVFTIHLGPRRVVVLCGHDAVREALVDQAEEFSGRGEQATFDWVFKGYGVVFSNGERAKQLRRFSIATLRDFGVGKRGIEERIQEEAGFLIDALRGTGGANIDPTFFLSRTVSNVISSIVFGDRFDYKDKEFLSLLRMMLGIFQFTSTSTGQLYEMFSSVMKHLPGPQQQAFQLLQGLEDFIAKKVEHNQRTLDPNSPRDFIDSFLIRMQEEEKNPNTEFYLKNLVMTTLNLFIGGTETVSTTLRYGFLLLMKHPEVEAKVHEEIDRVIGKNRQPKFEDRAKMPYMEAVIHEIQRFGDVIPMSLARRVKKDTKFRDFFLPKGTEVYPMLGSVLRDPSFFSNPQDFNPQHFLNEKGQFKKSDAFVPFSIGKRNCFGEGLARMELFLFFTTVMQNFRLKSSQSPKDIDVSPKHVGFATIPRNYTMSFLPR

2C9 = 2C9 (Homo sapiens, UniProt P11712); experiment: CYP inhibition in vitro; type: in vitro ADME
2C19 = 2C19 (Homo sapiens, UniProt P33261); experiment: CYP inhibition in vitro; type: in vitro ADME
2D6 = 2D6 (Homo sapiens, UniProt P10635); experiment: CYP inhibition in vitro; type: in vitro ADME
2E1 = 2E1 (Homo sapiens, UniProt P05181); experiment: CYP inhibition in vitro; type: in vitro ADME
3A4 = 3A4 (Homo sapiens, UniProt P08684); experiment: CYP inhibition in vitro; type: in vitro ADME
CYP3A [13] = experiment: CYP3A time-dependent inhibition in vitro; type: in vitro ADME; details: testosterone as the substrate
CYP3A [14] = experiment: CYP induction in cryopreserved hepatocytes; type: in vitro ADME; details: primary cultures of cryopreserved hepatocytes (2 donors)
CYP2B6 = experiment: CYP induction in cryopreserved hepatocytes; type: in vitro ADME; details: 1 concentration in 1/3 donors
P-glucoprotein (P-gp) = P-glucoprotein (P-gp) (Homo sapiens, UniProt P08183); experiment: efflux transporter inhibition in vitro; type: in vitro ADME
[15] = animal / pre-clinical toxicology studies; type: in vivo
[16] = clinical safety in subjects treated with Compound 1; type: in vivo
[17] = initial solubility assessment in 12 solvents/solvent mixtures; type: physicochemical; details: amorphous Compound 1, 12 solvents/solvent mixtures
Protocol: An initial solubility assessment was conducted in 12 solvents/solvent mixtures using amorphous Compound 1. […] Salt screening by cooling, anti-solvent addition, maturation, liquid assisted grinding, neat grinding and evaporation were all investigated. Gums isolated were subjected to heat/cool maturation cycles (room temperature/50° C.), sonication, prolonged storage under vacuum, prolonged storage at 40° C./75% RH, trituration with anti-solvent and liquid assisted grinding (LAG) with water. From extensive salt screening, eight hits were obtained. Amorphous hits with a high glass transition temperature (Tg) were identified from zinc chloride, naphthalene-2-sulfonic acid, 1,5-naphthalene disulfonic acid, and ethane sulfonic acid. One crystalline hit was identified from ethane sulfonic acid. Poorly crystalline material was isolated from calcium hydroxide, magnesium hydroxide and aluminum hydroxide.

CYP1A2 = experiment: CYP induction
[18] = cited from earlier work; remark: listed apart in the source
[19] = Table 5, counterion sources, first set Study 3
[20] = Table 6, counterion sources, second set Study 3

Chain of 2C9 (P11712 whole entry): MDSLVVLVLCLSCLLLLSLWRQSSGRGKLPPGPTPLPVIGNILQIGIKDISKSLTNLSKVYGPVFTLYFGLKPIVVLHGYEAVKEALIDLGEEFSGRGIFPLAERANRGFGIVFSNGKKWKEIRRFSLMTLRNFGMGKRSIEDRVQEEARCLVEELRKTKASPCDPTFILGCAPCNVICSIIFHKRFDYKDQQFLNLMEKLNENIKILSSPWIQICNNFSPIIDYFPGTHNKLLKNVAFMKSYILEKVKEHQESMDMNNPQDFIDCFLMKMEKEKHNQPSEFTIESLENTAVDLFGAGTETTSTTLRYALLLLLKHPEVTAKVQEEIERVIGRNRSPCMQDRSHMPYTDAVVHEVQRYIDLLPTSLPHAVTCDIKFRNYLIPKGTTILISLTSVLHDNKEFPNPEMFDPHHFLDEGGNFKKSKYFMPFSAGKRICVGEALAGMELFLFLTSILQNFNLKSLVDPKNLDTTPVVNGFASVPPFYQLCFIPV
Chain of 2E1 (P05181 whole entry): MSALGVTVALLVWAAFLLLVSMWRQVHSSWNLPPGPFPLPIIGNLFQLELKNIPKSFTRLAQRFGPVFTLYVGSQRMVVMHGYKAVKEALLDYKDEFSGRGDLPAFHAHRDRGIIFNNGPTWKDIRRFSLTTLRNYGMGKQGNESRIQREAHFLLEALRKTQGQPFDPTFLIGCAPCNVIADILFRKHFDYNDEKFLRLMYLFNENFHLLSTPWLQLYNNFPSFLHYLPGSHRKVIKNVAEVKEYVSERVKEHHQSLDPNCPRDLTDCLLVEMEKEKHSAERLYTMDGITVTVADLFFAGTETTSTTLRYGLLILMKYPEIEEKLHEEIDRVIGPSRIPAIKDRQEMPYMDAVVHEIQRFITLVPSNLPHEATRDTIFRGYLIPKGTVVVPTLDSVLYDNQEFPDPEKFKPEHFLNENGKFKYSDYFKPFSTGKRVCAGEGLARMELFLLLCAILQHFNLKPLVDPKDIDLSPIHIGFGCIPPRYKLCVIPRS
Chain of 2D6 (P10635 whole entry): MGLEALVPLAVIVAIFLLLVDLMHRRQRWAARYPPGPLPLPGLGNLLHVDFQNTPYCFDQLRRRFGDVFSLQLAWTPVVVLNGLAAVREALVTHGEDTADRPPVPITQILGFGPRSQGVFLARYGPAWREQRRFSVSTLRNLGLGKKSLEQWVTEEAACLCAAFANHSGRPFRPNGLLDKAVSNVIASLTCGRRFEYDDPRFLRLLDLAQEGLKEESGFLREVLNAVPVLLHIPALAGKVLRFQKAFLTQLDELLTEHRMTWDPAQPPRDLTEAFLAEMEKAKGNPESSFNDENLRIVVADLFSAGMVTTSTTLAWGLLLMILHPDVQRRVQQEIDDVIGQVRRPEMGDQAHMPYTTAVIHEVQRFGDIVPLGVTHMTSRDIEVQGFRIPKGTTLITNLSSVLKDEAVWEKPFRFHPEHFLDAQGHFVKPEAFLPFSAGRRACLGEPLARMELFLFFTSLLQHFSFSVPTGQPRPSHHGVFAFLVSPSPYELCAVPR
Chain of human ether-à-go-go-related gene (hERG) channel (Q12809 whole entry): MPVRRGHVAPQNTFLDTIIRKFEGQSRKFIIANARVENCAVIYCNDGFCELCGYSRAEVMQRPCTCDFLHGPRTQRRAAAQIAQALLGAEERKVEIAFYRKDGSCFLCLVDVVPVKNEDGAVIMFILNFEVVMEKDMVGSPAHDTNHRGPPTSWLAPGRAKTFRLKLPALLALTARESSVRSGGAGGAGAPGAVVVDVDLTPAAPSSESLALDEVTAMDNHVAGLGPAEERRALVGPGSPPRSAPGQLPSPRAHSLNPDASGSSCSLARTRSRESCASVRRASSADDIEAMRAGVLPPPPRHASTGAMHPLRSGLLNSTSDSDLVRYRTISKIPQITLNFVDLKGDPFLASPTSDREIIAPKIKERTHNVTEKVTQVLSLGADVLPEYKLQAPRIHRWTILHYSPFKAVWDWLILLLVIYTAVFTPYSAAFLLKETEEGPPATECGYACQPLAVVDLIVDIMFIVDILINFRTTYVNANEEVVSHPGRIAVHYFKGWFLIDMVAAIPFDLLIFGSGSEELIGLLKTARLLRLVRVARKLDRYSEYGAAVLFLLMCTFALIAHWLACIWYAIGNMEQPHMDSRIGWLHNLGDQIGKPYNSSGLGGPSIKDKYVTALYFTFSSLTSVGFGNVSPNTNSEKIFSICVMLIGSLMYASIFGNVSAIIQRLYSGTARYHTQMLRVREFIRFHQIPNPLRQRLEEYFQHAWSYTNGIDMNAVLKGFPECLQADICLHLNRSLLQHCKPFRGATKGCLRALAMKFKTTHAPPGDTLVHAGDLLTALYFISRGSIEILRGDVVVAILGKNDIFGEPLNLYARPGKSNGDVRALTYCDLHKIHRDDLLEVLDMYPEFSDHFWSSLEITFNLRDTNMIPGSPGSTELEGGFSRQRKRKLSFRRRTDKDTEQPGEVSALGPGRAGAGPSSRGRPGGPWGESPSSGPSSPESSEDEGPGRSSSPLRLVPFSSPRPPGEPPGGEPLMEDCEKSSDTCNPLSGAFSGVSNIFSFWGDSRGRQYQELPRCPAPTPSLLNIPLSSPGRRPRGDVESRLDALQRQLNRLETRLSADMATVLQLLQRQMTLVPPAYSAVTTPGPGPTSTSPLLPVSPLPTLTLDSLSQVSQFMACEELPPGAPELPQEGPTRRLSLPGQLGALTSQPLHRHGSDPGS
Chain of P-glucoprotein (P-gp) (P08183 whole entry): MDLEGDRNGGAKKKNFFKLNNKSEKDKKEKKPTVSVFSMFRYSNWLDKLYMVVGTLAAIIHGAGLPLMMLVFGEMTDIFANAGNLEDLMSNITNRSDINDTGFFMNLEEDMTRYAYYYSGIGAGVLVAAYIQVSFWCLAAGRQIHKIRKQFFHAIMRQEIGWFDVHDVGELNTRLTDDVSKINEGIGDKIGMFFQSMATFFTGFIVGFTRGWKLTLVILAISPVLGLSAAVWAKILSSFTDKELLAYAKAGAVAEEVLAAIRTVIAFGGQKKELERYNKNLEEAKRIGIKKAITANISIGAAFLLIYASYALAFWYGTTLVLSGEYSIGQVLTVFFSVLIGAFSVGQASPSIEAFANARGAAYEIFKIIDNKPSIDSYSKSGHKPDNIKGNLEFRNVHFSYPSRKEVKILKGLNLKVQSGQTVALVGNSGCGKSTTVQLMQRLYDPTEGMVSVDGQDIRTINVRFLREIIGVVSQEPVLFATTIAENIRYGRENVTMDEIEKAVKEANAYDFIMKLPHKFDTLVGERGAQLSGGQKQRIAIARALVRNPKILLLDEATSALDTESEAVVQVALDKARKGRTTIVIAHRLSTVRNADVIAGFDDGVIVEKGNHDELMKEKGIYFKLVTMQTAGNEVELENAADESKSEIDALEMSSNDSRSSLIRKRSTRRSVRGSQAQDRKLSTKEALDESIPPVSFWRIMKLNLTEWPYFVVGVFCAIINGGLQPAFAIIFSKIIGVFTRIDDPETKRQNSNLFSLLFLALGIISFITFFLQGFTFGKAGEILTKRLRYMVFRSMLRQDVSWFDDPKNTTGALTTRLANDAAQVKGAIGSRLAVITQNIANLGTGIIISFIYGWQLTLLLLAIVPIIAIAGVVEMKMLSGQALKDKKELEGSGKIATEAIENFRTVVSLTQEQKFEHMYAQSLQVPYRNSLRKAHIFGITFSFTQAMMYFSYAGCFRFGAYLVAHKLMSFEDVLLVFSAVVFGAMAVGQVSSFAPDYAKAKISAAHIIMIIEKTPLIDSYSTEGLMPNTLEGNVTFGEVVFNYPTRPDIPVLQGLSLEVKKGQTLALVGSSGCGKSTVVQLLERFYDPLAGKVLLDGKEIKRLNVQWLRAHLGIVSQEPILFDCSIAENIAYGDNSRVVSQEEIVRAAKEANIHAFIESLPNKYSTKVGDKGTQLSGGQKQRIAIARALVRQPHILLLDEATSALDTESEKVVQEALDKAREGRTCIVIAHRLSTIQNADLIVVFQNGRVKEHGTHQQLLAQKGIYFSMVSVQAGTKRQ
Chain of 2C19 (P33261 whole entry): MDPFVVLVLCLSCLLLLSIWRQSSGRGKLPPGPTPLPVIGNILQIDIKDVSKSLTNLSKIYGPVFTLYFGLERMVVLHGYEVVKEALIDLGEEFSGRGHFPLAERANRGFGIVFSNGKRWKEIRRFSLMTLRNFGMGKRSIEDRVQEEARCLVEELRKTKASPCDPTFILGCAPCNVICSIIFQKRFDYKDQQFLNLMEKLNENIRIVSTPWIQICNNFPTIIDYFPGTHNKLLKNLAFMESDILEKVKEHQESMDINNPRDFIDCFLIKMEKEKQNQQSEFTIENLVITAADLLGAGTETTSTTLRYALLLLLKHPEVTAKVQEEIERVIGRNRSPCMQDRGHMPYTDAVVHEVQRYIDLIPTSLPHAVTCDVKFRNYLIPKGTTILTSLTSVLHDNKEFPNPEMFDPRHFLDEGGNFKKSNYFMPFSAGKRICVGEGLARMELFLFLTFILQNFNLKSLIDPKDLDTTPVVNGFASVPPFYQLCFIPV
Chain of CYP3A4 (P08684 whole entry, canonical isoform): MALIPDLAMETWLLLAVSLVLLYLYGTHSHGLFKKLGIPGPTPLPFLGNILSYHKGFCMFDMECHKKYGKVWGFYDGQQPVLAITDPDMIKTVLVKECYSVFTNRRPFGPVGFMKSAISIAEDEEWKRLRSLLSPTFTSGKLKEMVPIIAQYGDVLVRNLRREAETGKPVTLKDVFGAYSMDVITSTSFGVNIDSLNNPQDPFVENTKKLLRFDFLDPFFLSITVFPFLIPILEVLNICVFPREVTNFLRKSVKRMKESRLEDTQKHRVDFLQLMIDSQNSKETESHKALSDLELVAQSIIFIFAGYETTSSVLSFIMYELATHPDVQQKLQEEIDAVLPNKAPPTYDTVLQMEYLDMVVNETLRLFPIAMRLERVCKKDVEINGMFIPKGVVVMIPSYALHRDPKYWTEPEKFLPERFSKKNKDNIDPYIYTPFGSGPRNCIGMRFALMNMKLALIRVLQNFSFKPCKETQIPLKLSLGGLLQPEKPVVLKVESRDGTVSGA
Chain of 3A4 (P08684 whole entry): as the sequence (P08684 whole entry, canonical isoform) above

N=C(N)NCCC[C@H](N)C(=O)O [L-Arginine]
pKa1 [1, 19]: 9.0

O=S(=O)(O)CCS(=O)(=O)O [Ethane-1,2-disulfonic acid]
pKa1 [1, 19]: −2.1

H2SO4 [Compound H2SO4]
stability of strong acid salts [2]: prone to instability
stability towards excipients and/or components of a formulation [2]: unstable

C[N+](C)(C)CCO [Choline]
pKa1 [1, 19]: >11.0

N#CS [Thiocyanic acid]
pKa1 [1, 20]: −1.3

O=C(O)c1cc2ccccc2c(Cc2c(O)c(C(=O)O)cc3ccccc23)c1O [Pamoic acid]
pKa1 [1, 20]: 2.5

O=S(=O)([O-])CCO.[Na+] [Sodium isethionate]
pKa1 [1, 20]: 1.7

O=C(O)CNC(=O)c1ccccc1 [Hippuric acid]
pKa1 [1, 20]: 3.6

OCCNCCO [Diethanolamine]
pKa1 [1, 19]: 9.5

O=S(=O)([O-])CCS(=O)(=O)[O-].[Na+].[Na+] [Sodium edisylate]
pKa1 [1, 20]: −2.1

O=S(=O)(O)c1ccc2ccccc2c1 [Naphthalene-2-sulfonic acid]
pKa1 [1, 19]: 0.17

C[C@H](CCOc1cccc(CC(=O)O)c1)N(Cc1cccc(C(F)(F)F)c1Cl)CC(c1ccccc1)c1ccccc1 [Compound 1, 2-[3-[(3R)-3-[[2-chloro-3-(trifluoromethyl)phenyl]methyl-(2,2-diphenylethyl)amino]butoxy]phenyl]acetic acid]
inhibition of endothelial recruitment (endothelial recruitment): ~50%
EC50 (ApoE [3]): 385 nM
induction of ApoE gene expression (ApoE [3]; compared to control cells): 3 fold
EC50 (ApoE [4]; Homo sapiens): 271 nM
induction of ApoE gene expression (ApoE [4]; compared to control cells): up to 40 fold
exposures at minimum efficacious doses ([5]; 25-40 mg/kg/day PO): 10,000-50,000 ng-h/mL
minimum efficacious doses ([5]; administered orally (PO), tumor growth studies): 25 to 40 mg/kg/day
hERG channel conductance [6]: significant increase, but not inhibition
effects on qualitative ECG parameters (PR or QTc intervals or QRS duration) [7]: no Compound 1-related effects
mean heart rate ([7]; Day 1 post-dose interval, significant in females at 150 (stepped down to 100) mg/kg/day): dose related decrease
neurobehavioral FOB or respiratory evaluations [8]: no adverse effects
food effect: plasma concentrations fed state (oral PK in CD-1 mice): > 2 fold
mean apparent oral t % ([9]; female rats): 6.5 h
clearance, females versus males ([9]; rats): cleared at a lower rate in female rats compared to males
mean apparent oral t % [10]: 5 to 6.7 h
Mean oral t % [11]: 5.5 to 8 h
metabolism by CYP3A4 (CYP3A4): metabolized predominantly
substrate for other CYP isoforms [12]: also a substrate
inhibition of 1A1 (1A1): very weakly inhibited
inhibition of 2A6 (2A6): very weakly inhibited
inhibition of 2C9 (2C9): very weakly inhibited
inhibition of 2C19 (2C19): very weakly inhibited
inhibition of 2D6 (2D6): very weakly inhibited
inhibition of 2E1 (2E1): very weakly inhibited
inhibition of 3A4 (3A4): very weakly inhibited
CYP3A time-dependent inhibition (TDI) (CYP3A [13]): time-dependent inhibition (TDI) was demonstrated
induction of CYP3A (CYP3A [14]): Induction of CYP3A by Compound 1 was demonstrated
induction of CYP2B6 (CYP2B6): > 2 fold
inhibition of P-gp (P-glucoprotein (P-gp)): does not inhibit
potential risks based on animal toxicology studies ([15]; animal toxicology studies): elevations in serum cholesterol and TG, neutropenia/leukopenia, nausea and/or vomiting, elevations in liver enzymes, development or worsening of cataracts, cardiac rhythm disturbances and/or reduced cardiac function, harderian gland adenocarcinoma, and/or generalized edema
liver function in pre-clinical toxicity studies ([15]; pre-clinical toxicity studies): Liver function abnormalities have been observed
dose limiting toxicity on single agent therapy ([16]; Compound 1 single agent therapy): DLT of Grade 4 neutropenia
hyperlipidemia in treated subjects ([16]; subjects treated with Compound 1): hyperlipidemia has been observed
solubility in solvents/solvent mixtures [17]: Dissolution was observed in most of the samples
induction of CYP1A2 (CYP1A2): did not induce

NCCCC[C@H](N)C(=O)O [L-Lysine]
pKa1 [1, 20]: 9.2

N[C@@H](Cc1c[nH]cn1)C(=O)O [Histidine]
pKa1 [1, 20]: 9.2

[NH2][Pt]1([NH2])[O]C(=O)C2(CCC2)C(=O)[O]1 [Carboplatin, platinum, diamine[1,1-cyclobutanedicarboxylato(2-)-O,O′]-(SP-4-2)]
pH of a 1% solution ([18]; 1% solution): 5-7
solubility in ethanol, acetone, and dimethylacetamide ([18]; ethanol, acetone, dimethylacetamide): virtually insoluble
solubility in water ([18]; water): approximately 14 mg/mL

CS(=O)(=O)O [methanesulfonic acid]
stability of strong acid salts [2]: prone to instability
stability towards excipients and/or components of a formulation [2]: unstable

OCCN1CCCC1 [1-(2-Hydroxyethyl)-pyrrolidine]
pKa1 [1, 20]: 9.4

CCS(=O)(=O)O [Ethanesulfonic acid]
pKa1 [1, 19]: −1.6

O=[N+]([O-])O [Nitric acid]
pKa1 [1, 19]: −1.3

From patent US11878956B2, “Metal salts and uses thereof” (Inspirna, Inc., priority 2019, dated 2024)
